The source of these data is patent US7291486B2, “Genetically modified cells and methods for converting (R)-methylmalonyl CoA to (S)-methylmalonyl CoA” (KOSAN Biosciences, Inc., priority 1999, dated 2007).

Data set [1] can be described thus: Stability of acyl-CoAs in TCA and mutase assay buffer (HPLC). In kind it is physicochemical. Conditions: mutase assay conditions, 30° C. As to the method:
To test whether acyl-CoAs degrade in TCA, the following tests were conducted. The CoA mix consisted of 1.6 mM each of malonyl-, methylmalonyl-, succinyl-, acetyl-, and propionyl-CoA, plus 0.5 mM CoA. An aliquot (10 μL) of this mix was added to 100 μL 10% TCA, 50 μL were immediately injected to the HPLC for CoA analysis, and the remainder was promptly frozen on dry ice. The frozen portion was then thawed and loaded immediately to the HPLC. Again, 10 μL of the CoA mix were added to 100 μL 10% TCA, 50 μL were left on ice for 15 minutes and then injected to the HPLC, the remainder was left at 4° C. overnight and injected to the HPLC the next morning. The area under each CoA peak was noted. This same procedure was followed but using a mixture of TCA and buffer A from the mutase assay.
The CoA analysis described here is carried out on cells which are lysed in 10% TCA. […] Thus, the CoAs are stable in TCA and in the mutase assay buffer after the cells are lysed or after the assays are completed, and prior to HPLC analysis.
Although the CoAs are stable in TCA and buffer at 4° C., they degraded at 30° C., the temperature at which the mutase assay was performed. In five minutes under the assay conditions, about 4% of the methylmalonyl-CoA hydrolyzed to CoA. […] Thus, the mutase assay is suboptimal for extremely quantitative results.

A short description of data set [2]: Spontaneous chemical epimerization between (R)- and (S)-mm-CoA. Particulars: in 15 minutes. In kind it is physicochemical.
Data set [3] is described as follows: Epimerase assay coupled to transcarboxylase and malate dehydrogenase, crude E. coli extracts. It counts as biochemical. Conditions: 30° C. As to the method: Cells of strain BL2] (DE3) containing pET-epsherm, pET-epcoel, pET-epsub, or a control pET vector were grown overnight at 37° C. in 2 mL LB containing 100 μg/ml carbenicillin. The starter culture (250 μL) was used to inoculate 25 mL LB containing 100 μg/ml carbenicillin. The cultures were grown at 37° C. to an OD of approximately 0.4, then induced with IPTG to 1 mM final concentration and grown for an additional 3 hours at 30° C. The cells were collected by centrifugation at 4000 rpm for 10 minutes, and the pellets were stored at −80° C. prior to assay. […]
Epimerase activity was measured in crude extracts of E. coli harboring either pET-epsherm, pET-epcoel, pET-epsub, or a control pET vector. The epimerase assay couples transcarboxylase, which converts (S)-methylmalonyl-CoA into propionyl-CoA, to malate dehydrogenase, which converts NADH into NAD^+, producing a decrease in absorbance at 340 nm. […] When an extract containing epimerase is added to the assay, the (R)-isomer is converted to (S)—, resulting in a further decrease in absorbance. […]
The pellet from approximately 20 mL of culture was thawed and resuspended in 2 mL 1X assay buffer containing a protease inhibitor cocktail tablet. […] The reaction was initiated with (2R,2S)-methylmalonyl-CoA and the decrease in absorbance at 340 nm was monitored, reflecting the disappearance of the 2S isomer. […]

Regarding `CC(C)(COP(=O)(O)OP(=O)(O)OC[C@H]1O[C@@H](n2cnc3c(N)ncnc32)[C@H](O)[C@@H]1OP(=O)(O)O)[C@@H](O)C(=O)NCCC(=O)NCCSC(=O)CCC(=O)O` [succinyl-CoA], the “rate of hydrolysis relative to methylmalonyl-CoA” value in data set [1] was “comparable rate”. Regarding `CC(C(=O)O)C(=O)SCCNC(=O)CCNC(=O)[C@H](O)C(C)(C)COP(=O)(O)OP(=O)(O)OC[C@H]1O[C@@H](n2cnc3c(N)ncnc32)[C@H](O)[C@@H]1OP(=O)(O)O` (stereo partly shown) [methylmalonyl-CoA], the “spontaneous chemical epimerization between (R)- and (S)-mm-CoA” value in data set [2] is “approximately 3%”. Besides, the “hydrolyzed to CoA” value in data set [1] (five minutes) was “about 4%”.

B1: P. shermanii epimerase: methylmalonyl-CoA epimerase from Propionibacterium shermanii expressed in E. coli, SEQ ID NO: 2 (protein)
chain: MSNEDLFICIDHVAYACPDADEASKYYQETFGWHELHREENPEQGVVEIMMAPAAKLTEHMTQVQVMAPLNDESTVAKWLAKHNGRAGLHHMAWRVDDIDAVSATLRERGVQLLYDEPKLGTGGNRINFMHPKSGKGVLIELTQYPKN
modifications: Deduced amino acid sequence of the epimerase gene sequence
As to B1, the specific activity entry in data set [3] is recorded as “approximately 30 units/mg”.
